Measurements taken from patent US20100292188A1, “Compounds Comprising A Cyclobutoxy Group” (UCB PHARMA S.A., priority 2008, published 2010).

Row | SMILES | melting point [°C]
1 | CC(=O)N1CCc2nc(-c3ccc(O[C@H]4C[C@H](N5CCCCC5)C4)cc3F)sc2C1 [Compound 36, 5-acetyl-2-{2-fluoro-4-[(trans-3-piperidin-1-ylcyclobutyl)oxy]phenyl}-4,5,6,7-tetrahydro[1,3]thiazolo[5,4-c]pyridine] | 142.8
2 | CC(=O)N1CCc2nc(-c3ccc(O[C@H]4C[C@H](N5CCC(F)(F)CC5)C4)cc3)sc2C1 [Compound 13, 5-acetyl-2-(4-{[trans-3-(4,4-difluoropiperidin-1-yl)cyclobutyl]oxy}phenyl)-4,5,6,7-tetrahydro[1,3]thiazolo[5,4-c]pyridine] | 175
3 | O[C@H]1C[C@@H](N2CCc3nc(-c4ccc(O[C@H]5C[C@H](N6CCCCC6)C5)cc4)sc3C2)C1 [Compound 24, cis-3-[2-{4-[(trans-3-piperidin-1-ylcyclobutyl)oxy]phenyl}-6,7-dihydro[1,3]thiazolo[5,4-c]pyridin-5(4H)-yl]cyclobutanol] | 169
4 | O=C(N1CCOCC1)N1CCc2nc(-c3ccc(O[C@H]4C[C@H](N5CCCCC5)C4)cc3)sc2C1 [Compound 6, 5-(morpholin-4-ylcarbonyl)-2-{4-[(trans-3-piperidin-1-ylcyclobutyl)oxy]phenyl}-4,5,6,7-tetrahydro[1,3]thiazolo[5,4-c]pyridine] | 149.3
5 | Cc1n[nH]nc1C(=O)N1CCc2nc(-c3ccc(O[C@H]4C[C@H](N5CCCCC5)C4)cc3)sc2C1 [Compound 35, 5-[(5-methyl-2H-1,2,3-triazol-4-yl)carbonyl]-2-{4-[(trans-3-piperidin-1-ylcyclobutyl)oxy]phenyl}-4,5,6,7-tetrahydro[1,3]thiazolo[5,4-c]pyridine] | 150 to 154
6 | O=C(CC(F)(F)F)N1CCc2nc(-c3ccc(O[C@H]4C[C@H](N5CCCCC5)C4)cc3)sc2C1 [Compound 33, 2-{4-[(trans-3-piperidin-1-ylcyclobutyl)oxy]phenyl}-5-(3,3,3-trifluoropropanoyl)-4,5,6,7-tetrahydro[1,3]thiazolo[5,4-c]pyridine] | 167 to 168
7 | COC(=O)CN1CCc2nc(-c3ccc(O[C@H]4C[C@H](N5CCCCC5)C4)cc3)sc2C1 [Compound 26, methyl [2-{4-[(trans-3-piperidin-1-ylcyclobutyl)oxy]phenyl}-6,7-dihydro[1,3]thiazolo[5,4-c]pyridin-5(4H)-yl]acetate] | 221
8 | NC(=O)N1CCc2nc(-c3ccc(O[C@H]4C[C@H](N5CCCCC5)C4)cc3)sc2C1 [Compound 10, 2-{4-[(trans-3-piperidin-1-ylcyclobutyl)oxy]phenyl}-6,7-dihydro[1,3]thiazolo[5,4-c]pyridine-5(4H)-carboxamide] | 199
9 | CCNC(=O)N1CCc2nc(-c3ccc(O[C@H]4C[C@H](N5CCCCC5)C4)cc3)sc2C1 [Compound 21, N-ethyl-2-{4-[(trans-3-piperidin-1-ylcyclobutyl)oxy]phenyl}-6,7-dihydro[1,3]thiazolo[5,4-c]pyridine-5(4H)-carboxamide] | 200
10 | c1cc(-c2nc3c(s2)CNCC3)ccc1O[C@H]1C[C@H](N2CCCCC2)C1 [Compound 5, 2-{4-[(trans-3-piperidin-1-ylcyclobutyl)oxy]phenyl}-4,5,6,7-tetrahydro[1,3]thiazolo[5,4-c]pyridine] | 144.5
11 | CC(=O)N1CCCc2sc(-c3ccc(O[C@H]4C[C@H](N5CCCCC5)C4)cc3)nc21 [Compound 30, 4-acetyl-2-{4-[(trans-3-piperidin-1-ylcyclobutyl)oxy]phenyl}-4,5,6,7-tetrahydro[1,3]thiazolo[4,5-b]pyridine] | 146
12 | OCCN1CCc2nc(-c3ccc(O[C@H]4C[C@H](N5CCCCC5)C4)cc3)sc2C1 [Compound 37, 2-[2-{4-[(trans-3-piperidin-1-ylcyclobutyl)oxy]phenyl}-6,7-dihydro[1,3]thiazolo[5,4-c]pyridin-5(4H)-yl]ethanol] | 142
13 | NC(=O)CN1CCc2nc(-c3ccc(O[C@H]4C[C@H](N5CCCCC5)C4)cc3)sc2C1 [Compound 18, 2-[2-{4-[(trans-3-piperidin-1-ylcyclobutyl)oxy]phenyl}-6,7-dihydro[1,3]thiazolo[5,4-c]pyridin-5(4H)-yl]acetamide] | 231
14 | CC(=O)N1CCc2oc(-c3ccc(O[C@H]4C[C@H](N5CCCCC5)C4)cc3)nc2C1 [Compound 28, 5-acetyl-2-{4-[(trans-3-piperidin-1-ylcyclobutyl)oxy]phenyl}-4,5,6,7-tetrahydro[1,3]oxazolo[4,5-c]pyridine] | 141.9
15 | COCC(=O)N1CCc2nc(-c3ccc(O[C@H]4C[C@H](N5CCCCC5)C4)cc3)sc2C1 [Compound 2, 5-(methoxyacetyl)-2-{4-[(trans-3-piperidin-1-ylcyclobutyl)oxy]phenyl}-4,5,6,7-tetrahydro[1,3]thiazolo[5,4-c]pyridine] | 128
16 | NC(=O)CC(=O)N1CCc2nc(-c3ccc(O[C@H]4C[C@H](N5CCCCC5)C4)cc3)sc2C1 [Compound 25, 3-oxo-3-[2-{4-[(trans-3-piperidin-1-ylcyclobutyl)oxy]phenyl}-6,7-dihydro[1,3]thiazolo[5,4-c]pyridin-5(4H)-yl]propanamide] | 176
17 | CC(=O)N1CCc2nc(-c3ccc(O[C@H]4C[C@H](N5CCN(C(C)C)CC5)C4)cc3)sc2C1 [Compound 12, 5-acetyl-2-(4-{[trans-3-(4-isopropylpiperazin-1-yl)cyclobutyl]oxy}phenyl)-4,5,6,7-tetrahydro[1,3]thiazolo[5,4-c]pyridine] | 109
18 | CC(C)(C)OC(=O)N1CCc2nc(-c3ccc(O[C@H]4C[C@H](N5CCCCC5)C4)cc3)sc2C1 [Compound 3, tert-butyl 2-{4-[(trans-3-piperidin-1-ylcyclobutyl)oxy]phenyl}-6,7-dihydro[1,3]thiazolo[5,4-c]pyridine-5(4H)-carboxylate] | 162.3

Further lines, results first:

Row | melting point [°C] | SMILES
19 | 145 to 146 | CCOC(=O)C(=O)N1CCc2nc(-c3ccc(O[C@H]4C[C@H](N5CCCCC5)C4)cc3)sc2C1 [Compound 49, ethyl oxo[2-{4-[(trans-3-piperidin-1-ylcyclobutyl)oxy]phenyl}-6,7-dihydro[1,3]thiazolo[5,4-c]pyridin-5(4H)-yl]acetate]
20 | 209 to 210 | NC(=O)NCC(=O)N1CCc2nc(-c3ccc(O[C@H]4C[C@H](N5CCCCC5)C4)cc3)sc2C1 [Compound 52, 1-{2-oxo-2-[2-{4-[(trans-3-piperidin-1-ylcyclobutyl)oxy]phenyl}-6,7-dihydro[1,3]thiazolo[5,4-c]pyridin-5(4H)-yl]ethyl}urea]
21 | 144 | CC(=O)NCCC(=O)N1CCc2nc(-c3ccc(O[C@H]4C[C@H](N5CCCCC5)C4)cc3)sc2C1 [Compound 42, N-{3-oxo-3-[2-{4-[(trans-3-piperidin-1-ylcyclobutyl)oxy]phenyl}-6,7-dihydro[1,3]thiazolo[5,4-c]pyridin-5(4H)-yl]propyl}acetamide]
22 | 165 | O=C(CCCN1CC[S+]([O-])CC1)N1CCc2nc(-c3ccc(O[C@H]4C[C@H](N5CCCCC5)C4)cc3)sc2C1 [Compound 41, 5-[4-(1-oxidothiomorpholin-4-yl)butanoyl]-2-{4-[(trans-3-piperidin-1-ylcyclobutyl)oxy]phenyl}-4,5,6,7-tetrahydro[1,3]thiazolo[5,4-c]pyridine]
23 | 147 to 148 | O=C(C(O)C(F)(F)F)N1CCc2nc(-c3ccc(O[C@H]4C[C@H](N5CCCCC5)C4)cc3)sc2C1 (stereo partly drawn) [Compound 44, 1,1,1-trifluoro-3-oxo-3-[2-{4-[(trans-3-piperidin-1-ylcyclobutyl)oxy]phenyl}-6,7-dihydro[1,3]thiazolo[5,4-c]pyridin-5(4H)-yl]propan-2-ol]
24 | 155.3 | O=C(CO)N1CCc2sc(-c3ccc(O[C@H]4C[C@H](N5CCCCC5)C4)cc3)nc2C1 [Compound 63, 2-oxo-2-[2-{4-[(trans-3-piperidin-1-ylcyclobutyl)oxy]phenyl}-6,7-dihydro[1,3]thiazolo[4,5-c]pyridin-5(4H)-yl]ethanol]
25 | 178 | O=C(N1CCc2nc(-c3ccc(O[C@H]4C[C@H](N5CCCCC5)C4)cc3)sc2C1)C1(O)CC1 [Compound 46, 1-{[2-{4-[(trans-3-piperidin-1-ylcyclobutyl)oxy]phenyl}-6,7-dihydro[1,3]thiazolo[5,4-c]pyridin-5(4H)-yl]carbonyl}cyclopropanol]
26 | 214.3 | NC(=O)N1CCc2sc(-c3ccc(O[C@H]4C[C@H](N5CCCCC5)C4)cc3)nc2C1 [Compound 64, 2-{4-[(trans-3-piperidin-1-ylcyclobutyl)oxy]phenyl}-6,7-dihydro[1,3]thiazolo[4,5-c]pyridine-5(4H)-carboxamide]
